Laboratory results taken from patent US8609860B2, “Acid-labile trigger units” (KTB Tumorforschungsgesellschaft mbH, priority 2009, dated 2013).

Key:
[1] = buffer
Description: (§1) Half-lives of imine hydrolysis are determined by measuring the decrease of the concentration of the imine and/or the increase of the concentration of the hydrolysis products e.g. by fluorescence methods, HPLC, infrared spectroscopy and/or NMR spectroscopy.
(§2) For example, in the case of compounds comprising above groups Ar and the fluorescent dye AMC (cf. FIG. 3), half-lives of imine hydrolysis are determined by measuring the increase in fluorescence that corresponds to the release of AMC from the model compounds.
(§3) • 200 μL solution per well; • Wavelength: λex=390 nm, λem=460 nm; • Temperature: 37° C.

[2] = Determination of half-lives for the imine hydrolysis in model compounds (AMC release, fluorescence)
Description: as §1, §2, §3

| Compound | t1/2 pH 5.0 (half-life of imine hydrolysis) ([1]; pH 5) [min] | t1/2 pH 7.4 (half-life of imine hydrolysis) ([1]; pH 7.4) [h] | half-life ([2]; acetate buffer, pH 5) [h] | half-life ([2]; phosphate buffer, pH 7.4) [h] |
| --- | --- | --- | --- | --- |
| 4-(Perfluorobenzylideneamino)benzyl 4-methylcoumarin-7-ylcarbamate [Compound 6] | 173 | 365 |  |  |
| Cc1cc(=O)oc2cc(NC(=O)OCc3ccc(N=Cc4ccccc4)cc3)ccc12 [Compound 4, 4-(Benzylideneamino)benzyl 4-methylcoumarin-7-ylcarbamate] |  |  | 0.567 | 8 |
| Cc1cc(=O)oc2cc(NC(=O)OCc3ccc(N=Cc4c(F)c(F)cc(F)c4F)cc3)ccc12 [Compound 5, 4-(2,3,5,6-Tetrafluorobenzylideneamino)benzyl 4-methylcoumarin-7-ylcarbamate] |  |  | 0.567 | 89 |
